According to US8835644B2, “Broad spectrum benzothiophene-nitrothiazolide and other antimicrobials” (University of Virginia Patent Foundation, priority 2009, dated 2014):
Converted amounts (≈) assume the structure as drawn. Where two headings read alike, the source gives them in different places.

Assays:
H. pylori = assay: MIC testing by broth dilution, H. pylori; format: cell-based, Helicobacter pylori
Method in brief: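 Helicobacter pylori was tested using a standard broth dilution method in 96 well microplates, each well holding a standard dilution of the organism in 100 microliters of Brain Heart Infusion. Compounds started at 32 μg/ml in 200 microliters in the first well and were serially diluted from 32 to 0.06. Wells were read visually at 24 h, and the MIC was the well with no growth.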

C. difficile = assay: Disk diffusion (Kirby Bower), C. difficile; format: cell-based, Clostridium difficile; details: for Disk Diff (%) C. difficile: Nitazoxanide = 100
Protocol: (§1) A standard broth dilution protocol was used in 96 well microplates containing a standard dilution of the microorganism to be tested in 100 microliters of the appropriate medium. Appropriate medium: E. coli, LB medium; Staphylococcus strains, Trypticase Soy; and for H. pylori and C. jejuni, Brain Heart Infusion. The compounds to be tested were set at 32 μg/ml in 200 microliters in well one and then serially diluted to provide a range from 32 to 0.06. The wells were scored visually at 24 h. The well where there was no growth was recorded as the MIC. Clostridium difficile was tested by agar diffusion and disk diffusion (Kirby Bower) methods under anaerobic conditions on Wilkins Chalgrin agar. In these assays, zone of inhibited growth was measured and compared by relative ratio to the zone recorded for NTZ.
(§2) Representative compounds of the invention were tested in a series of assays against a series of organisms as described above. […] The organisms tested include, C. difficile, H. pylori, C. jejuni, MRSA, S. epidermidis, and E. coli. S. epidermidis and E. coli were tested in the plank and biofilm assay. A disk diffusion assay was also used for C. difficile. Direct PFOR enzyme assays were also performed. All analogues and derivatives were not tested on every organism in every type of assay (the “-” in each table means that it was not tested).

MRSA = assay: MIC testing by broth dilution, MRSA; format: cell-based, Staphylococcus aureus
Method in brief: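 Values are broth-dilution MICs, defined as the well showing no growth on visual reading after 24 h; the tested range was 32 to 0.06 μg/ml, in organism-specific media (LB, Trypticase Soy, Brain Heart Infusion). The C. difficile entries come instead from anaerobic Kirby-Bauer disk zones, normalised to NTZ.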

S. epidermidis biofilm = S. epidermidis biofilm assay (activity tables); format: cell-based, Staphylococcus epidermidis
Protocol: Staphylococcal strains were cultured overnight in TSB at 37° C. with shaking, diluted in fresh medium to an OD600 of 0.01 and 200 W was dispensed into sterile flat bottom polystyrene 96 well microtiter plates (Costar 3596, Corning Inc.). […] Each compound and dilution was tested in triplicate. The plates were incubated overnight at 37° C. in a humidified incubator, without shaking and both growth and biofilm accumulation were determined at 16 h.
Following recording of turbidities, the culture medium was aspirated and the wells were washed three times with distilled water, blotted on paper towels, and fixed with 75% ethanol for 10 minutes.
To visualize biofilm material, 0.5% crystal violet was added to each well and after 5 minutes was removed and the wells washed three times with distilled water. Plates were read using a microplate reader at a wavelength of 570 nm. The dye was then extracted by adding 200 W of 95% ethanol, and the absorbance was read again at 570 nm. All assays were performed in triplicate and the mean and standard deviation determined. […]
as §2

C. jejuni = assay: MIC testing by broth dilution, C. jejuni; format: cell-based, Campylobacter jejuni
Method in brief: (§3)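 Media: LB (E. coli), Trypticase Soy (S. epidermidis), BHI (C. jejuni); plank cells. C. difficile on Wilkins Chalgrin agar, anaerobic Kirby-Bauer disks, zone vs NTZ zone ratio.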

E. coli biofilm = E. coli biofilm assay (activity tables); format: cell-based, Escherichia coli; details: biofilm
Protocol: A quantitative biofilm assay was used to determine the effect of NTZ on biofilm formation (41). Strain 042 was grown overnight at 37° C. with shaking and inoculated 1:100 in 200 μl culture medium in Costar 96-well, flat-bottom, polystyrene microtiter plates containing appropriate concentrations of NTZ. Plates were incubated statically at 37° C. in a humidified incubator. At 24 h, bacterial growth was measured by either transferring […] aliquots to another microtiter plate to determine turbidity or by diluting 100 μl aliquots 1:100 in 9.9 ml PBS for quantitative plate counts on LB medium. Bacterial counts in triplicate are reported as cfu/ml. Biofilm was visualized following staining with 0.5% crystal violet (41) and the absorbance was read at 570 nm using a microplate reader (Molecular Dynamics). All experiments were in triplicate and reported as mean and standard deviation.
as §1, §2

E. coli = assay: MIC testing by broth dilution, E. coli plank; format: cell-based, Escherichia coli
Method in brief: as §3

S. epidermidis = assay: MIC testing by broth dilution, S. epidermidis plank; format: cell-based, Staphylococcus epidermidis
Method in brief: as §3

[1] = broth dilution, Brain Heart Infusion, 24 h, read-out: MIC (μM) H. pylori
[2] = broth dilution, Trypticase Soy, 24 h, read-out: MIC (μM) MRSA
[3] = broth dilution, Brain Heart Infusion, 24 h, read-out: MIC (μM) C. jejuni
[4] = read-out: MIC (μM) E. coli Biofilm
[5] = broth dilution, LB medium, 24 h, read-out: MIC (μM) E. coli Plank
[6] = broth dilution, Trypticase Soy, 24 h, read-out: MIC (μM) S. epidermidis Plank

| Structure (SMILES) | MIC (H. pylori; [1]) [µM] | MIC (MRSA; [2]) [µM] | MIC (μM) S. epidermidis Biofilm (S. epidermidis biofilm) [µM] | MIC (C. jejuni; [3]) [µM] | MIC (E. coli biofilm; [4]) [µM] | MIC (E. coli; [5]) [µM] | MIC (S. epidermidis; [6]) [µM] | other results |
| --- | --- | --- | --- | --- | --- | --- | --- | --- |
| O=C(Nc1ncc([N+](=O)[O-])s1)c1ccc(-c2ccccc2C(F)(F)F)o1 [VPC161196, N-(5-Nitrothiazol-2-yl)-5-(2-(trifluoromethyl)phenyl)furan-2-carboxamide] | – | – | – | – | – | – | – | MIC (H. pylori; Helicobacter pylori, Furan analogues table, read-out: MIC H. pylori): 1.1 µM (≈ 0.422 µg/mL); Disk Diff (%) C. difficile (C. difficile; Furan analogues table): 70.5 ± 0.5%; MIC (MRSA; Staphylococcus aureus, MRSA, Furan analogues table, read-out: MIC MRSA): 2.8 µM (≈ 1.07 µg/mL); MIC S. epidermidis Biofilm (S. epidermidis biofilm; Furan analogues table): 5.7 µM (≈ 2.18 µg/mL); MIC (C. jejuni; Campylobacter jejuni, Furan analogues table, read-out: MIC C. jejuni): 8.5 µM (≈ 3.26 µg/mL); MIC (E. coli biofilm; Escherichia coli, Furan analogues table, read-out: MIC E. coli Biofilm): 90.8 µM (≈ 34.8 µg/mL); MIC (E. coli; Escherichia coli, planktonic, Furan analogues table, read-out: MIC E. coli Plank): 90.8 µM (≈ 34.8 µg/mL); MIC (S. epidermidis; Staphylococcus epidermidis, planktonic, Furan analogues table, read-out: MIC S. epidermidis Plank): 5.7 µM (≈ 2.18 µg/mL) |
| CCCCCCCC(=O)Nc1ncc([N+](=O)[O-])s1 [VPC16b1046] | 0.8 (≈ 0.217 µg/mL) | 59.0 (≈ 16 µg/mL) | 7.4 (≈ 2.01 µg/mL) | 106.9 (≈ 29 µg/mL) | 88.4 (≈ 24 µg/mL) | 117.9 (≈ 32 µg/mL) | 11.1 (≈ 3.01 µg/mL) | Disk Diffusion (%) C. difficile (C. difficile; zone of inhibited growth as relative ratio to the zone for NTZ): 54 ± 4% |
| O=C(Nc1ncc([N+](=O)[O-])s1)c1ccc(Br)s1 [VPC161282, 5-Bromo-N-(5-nitrothiazol-2-yl)thiophene-2-carboxamide] | – | – | – | – | – | – | – | MIC (H. pylori; Helicobacter pylori, Thiophene analogues table, read-out: MIC H. pylori): 3 µM (≈ 1 µg/mL); Disk Diff (%) C. difficile (C. difficile; Thiophene analogues table): 90%; MIC (MRSA; Staphylococcus aureus, MRSA, Thiophene analogues table, read-out: MIC MRSA): 4.5 µM (≈ 1.5 µg/mL); MIC S. epidermidis Biofilm (S. epidermidis biofilm; Thiophene analogues table): 47.9 µM (≈ 16 µg/mL); MIC (C. jejuni; Campylobacter jejuni, Thiophene analogues table, read-out: MIC C. jejuni): 9.9 µM (≈ 3.31 µg/mL); MIC (E. coli biofilm; Escherichia coli, Thiophene analogues table, read-out: MIC E. coli Biofilm): 0.1 µM (≈ 0.0334 µg/mL); MIC (E. coli; Escherichia coli, planktonic, Thiophene analogues table, read-out: MIC E. coli Plank): 95.8 µM (≈ 32 µg/mL); MIC (S. epidermidis; Staphylococcus epidermidis, planktonic, Thiophene analogues table, read-out: MIC S. epidermidis Plank): 23.9 µM (≈ 7.99 µg/mL) |
| COc1ccc(-c2ccc(F)cc2F)cc1C(=O)Nc1ncc([N+](=O)[O-])s1 [VPC161171] | 0.8 (≈ 0.313 µg/mL) | 81.8 (≈ 32 µg/mL) | 81.8 (≈ 32 µg/mL) | 40.9 (≈ 16 µg/mL) | 81.8 (≈ 32 µg/mL) | 81.8 (≈ 32 µg/mL) | 81.8 (≈ 32 µg/mL) | – |
| O=C(Nc1ncc([N+](=O)[O-])s1)c1cccc([N+](=O)[O-])c1O [VPC161090] | 19.3 (≈ 5.99 µg/mL) | 103.1 (≈ 32 µg/mL) | 6.4 (≈ 1.99 µg/mL) | 103.1 (≈ 32 µg/mL) | 103.1 (≈ 32 µg/mL) | 103.1 (≈ 32 µg/mL) | 77.4 (≈ 24 µg/mL) | – |
| Cl.N[C@H](C(=O)Nc1ncc([N+](=O)[O-])s1)c1ccccc1 [VPC16a1027] | 76.3 | 101.7 | 101.7 | 38.1 | 25.4 | 101.7 | 101.7 | – |
| O=C(Nc1ncc([N+](=O)[O-])s1)c1ccc(-c2ccc([N+](=O)[O-])cc2)o1 [VPC161189] | – | – | – | – | – | – | – | MIC (H. pylori; Furan analogues table, read-out: MIC H. pylori): 6.9 µM (≈ 2.49 µg/mL); MIC (MRSA; Furan analogues table, read-out: MIC MRSA): 88.8 µM (≈ 32 µg/mL); MIC S. epidermidis Biofilm (S. epidermidis biofilm; Furan analogues table): 11.1 µM (≈ 4 µg/mL); MIC (C. jejuni; Furan analogues table, read-out: MIC C. jejuni): 16.7 µM (≈ 6.02 µg/mL); MIC (E. coli biofilm; Furan analogues table, read-out: MIC E. coli Biofilm): 88.8 µM (≈ 32 µg/mL); MIC (E. coli; planktonic, Furan analogues table, read-out: MIC E. coli Plank): 88.8 µM (≈ 32 µg/mL); MIC (S. epidermidis; planktonic, Furan analogues table, read-out: MIC S. epidermidis Plank): 11.1 µM (≈ 4 µg/mL) |
